Read-outs that look alike come from different tables or passages of the source.

One data set has as its system human MDR1 P-gp. As to the kind of experiment: Assay D: efflux in MDCK cells transfected with the human MDR1 gene. The data set is classed as in vitro ADME, canine. The note with it: dog; MDCK-MDR1 monolayers, pH 7.4, 37° C.; read-out: MDCK efflux ratio (BA/AB). As for the experimental part: The MDCK assay provides information on the potential of a compound to pass the blood brain barrier. Permeability measurements across polarized, confluent MDCK-MDR1 cell monolayers grown on permeable filter supports are used as an in vitro absorption model: apparent permeability coefficients (PE) of the compounds across the MDCK-MDR1 cell monolayers are measured (pH 7.4, 37° C.) in apical-to-basal (AB) and basal-to-apical (BA) transport direction. The AB permeability (PEAB) represents drug absorption from the blood into the brain and the BA permeability (PEBA) drug efflux from the brain back into the blood via both, passive permeability as well as active transport mechanisms mediated by efflux and uptake transporters that are expressed on the MDCK-MDR1 cells, predominantly by the overexpressed human MDR1 P-gp. Identical or similar permeabilities in both transport directions indicate passive permeation, vectorial permeability points to additional active transport mechanisms. Higher PEBA than PEAB (PEBA/PEAB>5) indicates the involvement of active efflux mediated by MDR1 P-gp, which might compromises the goal to achieve sufficient brain exposure. Therefore this assay provides valuable support for selection of compounds applicable for further in vivo testing. High permeability not limited by efflux at the blood brain barrier is a favourable characteristic for compounds that are to be used for drugs acting primarily in the CNS
D. Assessment of Efflux in Madin-Darby Canine Kidney (MDCK) Cells Transfected with the Human MDR1 Gene
Apparent permeability coefficients (PE) of the compounds across the MDCK-MDR1 cell monolayers are measured (pH 7.4, 37° C.) in apical-to-basal (AB) and basal-to-apical (BA) transport direction. AB permeability (PEAB) represents drug absorption from the blood into the brain and BA permeability (PEBA) drug efflux from the brain back into the blood via both passive permeability as well as active transport mechanisms mediated by efflux and uptake transporters that are expressed on the MDCK-MDR1 cells, predominantly by the overexpressed human MDR1 P-gp. The compounds are assigned to permeability/absorption classes by comparison of the AB permeabilities with the AB permeabilities of reference compounds with known in vitro permeability and oral absorption in the human. Identical or similar permeabilities in both transport directions indicate passive permeation, vectorial permeability points to additional active transport mechanisms. Higher PEBA than PEAB indicates the involvement of active efflux mediated by MDR1 P-gp. Active transport is concentration-dependently saturable.
MDCK-MDR1 cells (1-2×10e5 cells/1 cm2 area) are seeded on filter inserts (Costar transwell polycarbonate or PET filters, 0.4 μm pore size) and cultured (DMEM) for 7 days. Subsequently, the MDR1 expression is boosted by culturing the cells with 5 mM sodium butyrate in full medium for 2 days. Compounds are dissolved in appropriate solvent (like DMSO, 1-20 mM stock solutions). Stock solutions are diluted with HTP-4 buffer (128.13 mM NaCl, 5.36 mM KCl, 1 mM MgSO4, 1.8 mM CaCl2, 4.17 mM NaHCO3, 1.19 mM Na2HPO4×7H2O, 0.41 mM NaH2PO4×H2O, 15 mM HEPES, 20 mM glucose, 0.25% BSA, pH 7.4) to prepare the transport solutions (0.1-300 μM compound, final DMSO<=0.5%). The transport solution (TL) is applied to the apical or basolateral donor side for measuring A-B or B-A permeability (3 filter replicates), respectively. The receiver side contains the same buffer as the donor side. Samples are collected at the start and end of experiment from the donor and at various time intervals for up to 2 hours also from the receiver side for concentration measurement by HPLC-MS/MS or scintillation counting. Sampled receiver volumes are replaced with fresh receiver solution.

Another data set addresses T1, OX1R (Homo sapiens, UniProt O43613).
T1 sequence (O43613 1-425): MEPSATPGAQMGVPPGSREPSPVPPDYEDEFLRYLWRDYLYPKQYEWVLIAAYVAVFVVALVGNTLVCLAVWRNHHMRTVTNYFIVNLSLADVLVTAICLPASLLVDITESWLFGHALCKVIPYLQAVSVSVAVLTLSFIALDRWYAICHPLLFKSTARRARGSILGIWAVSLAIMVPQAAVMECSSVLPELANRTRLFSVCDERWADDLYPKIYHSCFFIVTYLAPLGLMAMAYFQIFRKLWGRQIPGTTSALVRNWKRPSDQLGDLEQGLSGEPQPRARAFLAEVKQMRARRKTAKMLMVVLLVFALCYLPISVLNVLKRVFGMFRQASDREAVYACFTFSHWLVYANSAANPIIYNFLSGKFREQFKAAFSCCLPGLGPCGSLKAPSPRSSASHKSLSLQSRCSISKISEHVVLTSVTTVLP
The note with it: cited from earlier work.

The next data set deals with T2, OX2R (Homo sapiens, UniProt O43614).
T2 sequence (O43614 1-444): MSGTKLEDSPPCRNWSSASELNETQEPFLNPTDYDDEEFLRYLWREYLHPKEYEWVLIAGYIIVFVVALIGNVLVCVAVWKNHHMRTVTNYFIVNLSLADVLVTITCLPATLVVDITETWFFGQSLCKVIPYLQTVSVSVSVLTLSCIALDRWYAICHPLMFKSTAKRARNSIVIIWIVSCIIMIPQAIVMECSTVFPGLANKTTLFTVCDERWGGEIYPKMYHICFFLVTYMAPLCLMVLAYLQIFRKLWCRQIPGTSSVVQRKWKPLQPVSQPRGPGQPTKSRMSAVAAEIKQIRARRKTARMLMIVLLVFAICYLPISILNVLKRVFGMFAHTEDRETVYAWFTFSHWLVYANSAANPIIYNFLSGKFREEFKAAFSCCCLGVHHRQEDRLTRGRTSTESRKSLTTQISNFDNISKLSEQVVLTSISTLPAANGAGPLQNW
The note with it: cited from earlier work.

The target in another data set is T3, human Orexin 1 receptor (Homo sapiens, UniProt O43613).
T3 construct: stably expressing the full-length human Orexin 1 receptor and the aequorin photoprotein; expressed in transfected cells; host or cells: CHO-K1 (CHO-K1/hOx1), co-expressing aequorin
T3 sequence (O43613 1-425): T1 sequence (O43613 1-425)
Briefly: Assay A: OX1R IP1 (in vitro OX1R potency). The class given is cell-based. An excerpt:
Activation of the orexin receptors expressed in cell lines results in an increase in intracellular IP3 concentration. IP1, a downstream metabolite of IP3, accumulates in cells following receptor activation and is stable in the presence of LiCl. Using Homogeneous Time-Resolved Fluorescence technology with Lumi4-Tb cryptate (commercially available from Cisbio Bioassay.) and a suitable fluorescence plate reader. […] This technique is used to characterize pharmacological modification of the orexin receptors.
A. In Vitro Testing of OX1R Potency: OX1R IP1
IP1 measurements are performed in CHO-K1 cells stably expressing the full-length human Orexin 1 receptor and the aequorin photoprotein. Cells are cultivated in Ham's nutrient mixture F12 medium with 10% fetal calf serum, in a 37° C., 95% humidity and 5% CO2 incubator. The CHO-K1/hOx1 cell mass is expanded to larger cell numbers. The cells are obtained as frozen cells in cryo-vials and stored until use at −150° C. […] In preparation for the assay, 24 hours before the assay, the cells are thawed at 37° C. and immediately diluted with cell culture medium. After centrifugation, the cell pellet is re-suspended in medium and then distributed into the assay plates with a density of 10000 cells/25 μL per well. The plates are incubated for one hour at room temperature to reduce edge effects before they are incubated for 24 hours at 37° C./5% CO2. Compounds are prepared by an 8-point serial dilution in DMSO and a final dilution step into assay buffer (HBSS with 20 mM HEPES, 0.1% BSA and 50 mM LiCl, pH 7.4) to ensure a final DMSO concentration of 1% in the assay.
On the day of the assay, cells in the plate are washed twice with 60 μL assay buffer (20 μL buffer remained in the wells after washing), followed by adding 5 μL per well of compounds diluted in assay buffer. After 15 minutes of incubation at room temperature 5 μL per well of Orexin A peptide (final concentration: 0.5 nM, and/or 50 nM) dissolved in assay buffer is added to the assay plate. The assay plate is incubated for 60 minutes at 37° C. Then 5 μl per well of Anti-IP1-Cryptate Tb solution and 5 μl per well of IP1-d2 dilution are added and the plate is incubated for a further 60 minutes light protected at room temperature. […] 8-point four parametric non-linear curve fitting and determination of IC50 values and Hill slopes is performed using a regular analysis software e.g. AssayExplorer (Accelrys).
Kb values from Assay A (OX1R) and Assay B (OX2R) can then provide a selectivity ratio which is independent of the agonist (Orexin A) concentration.

[1] abbreviates: corresponds to pIC50, Table 3 of WO2016/034882.

For the molecule `CC[C@@H](CNc1cnc(C(F)(F)F)cn1)N(C)C(=O)c1cc(Cl)ccc1-n1nccn1` [Ex 40 in WO2016/034882, reference compound], in the data set with human MDR1 P-gp, the efflux ratio is less than 3. Besides, on OX1R (Table 3 of WO2016/034882), the “OX2R IC50/OX1R IC50” value is “Table 3: 156”. Usually IC50 stands for the concentration at which inhibition is half-maximal. As for `CC[C@@H](CNc1ncc(C(F)(F)F)cn1)N(C)C(=O)c1nc(C)ccc1-n1nccn1` [Ex 46 in WO2016/034882], in the data set with human MDR1 P-gp, the efflux ratio is less than 3. Besides, the “OX2R IC50/OX1R IC50” value on OX1R (Table 1 of WO2016/034882) is listed as 390; at OX1R (Table 2 of WO2016/034882), more than 312; at OX1R (Table 3 of WO2016/034882) it was 3200. Moreover, the “OX2R pIC50” value at OX2R (Table 2 of WO2016/034882) and on OX2R (Table 3 of WO2016/034882) was less than 5.0 throughout. In addition, the IC50 is more than 10 µM at OX2R (corresponds to pIC50, Table 2 of WO2016/034882) and not below 10 µM at OX2R (setting [1]).

Turning to `CC[C@@H](CNc1ncc(C(F)(F)F)cn1)N(CC)C(=O)c1nc(C)ccc1-n1nccn1` [Ex 73 in WO2016/034882], the “OX2R pIC50” value at OX2R (Table 3 of WO2016/034882) was less than 6.0. Besides, the IC50 at OX2R (setting [1]) was more than 1 µM. Regarding `CC[C@@H](CNc1ncc(C(F)(F)F)cn1)N(C)C(=O)c1nc(C)ccc1-c1ncccn1` [Ex 84 in WO2016/034882, reference compound], the efflux ratio with human MDR1 P-gp was less than 3. The “OX2R IC50/OX1R IC50” value at OX1R (Table 3 of WO2016/034882) was “Table 3: 526”. On to `CC[C@@H](CNc1ncc(C(F)(F)F)cn1)N(C)C(=O)c1c(F)cccc1-n1nccn1` [Ex 91 in WO2016/034882], for which the efflux ratio in the data set with human MDR1 P-gp was less than 3. The “OX2R pIC50” value at OX2R (Table 3 of WO2016/034882) was less than 5.1. For the same molecule, the IC50 on OX2R (setting [1]) is not below 7.95 µM. As to `CCN(C(=O)c1ccc(F)cc1-n1nccn1)[C@@H](C)CNc1ncc(C(F)(F)F)cn1` [Example 2], in the data set with human MDR1 P-gp, the efflux ratio was less than 3. Still for that read-out and setting: as for `CCN(C(=O)c1ccc(F)c(F)c1-n1nccn1)[C@@H](C)CNc1ncc(C(F)(F)F)cn1` [Example 4], the figure is less than 3; as for `CCN(C(=O)c1cc(F)ccc1-n1nccn1)[C@@H](C)CNc1ncc(C(F)(F)F)cn1` [Example 5], less than 3. For `CCN(C(=O)c1c(F)cccc1-n1nccn1)[C@@H](C)CNc1ncc(C(F)(F)F)cn1` [Example 7], the “more potent at OX1R” value at human Orexin 1 receptor (versus Example 91 in WO2016/034882) came to 25 fold. In addition, the efflux ratio with human MDR1 P-gp was less than 3. For the molecule `CCN(C(=O)c1cc(C#N)ccc1-n1nccn1)[C@@H](C)CNc1ncc(C(F)(F)F)cn1` [Example 8], the efflux ratio in the data set on human MDR1 P-gp lay within 3 to 5. `CCN(C(=O)c1cc(F)cnc1-n1nccn1)[C@@H](C)CNc1ncc(C(F)(F)F)cn1` [Example 10]: the efflux ratio in the data set with human MDR1 P-gp is less than 3. As to `CCN(C(=O)c1cccc(F)c1-c1ncccn1)[C@@H](C)CNc1ncc(C(F)(F)F)cn1` [Example 11], the efflux ratio with human MDR1 P-gp was in the range of 3 to 5.

As for `CCN(C(=O)c1nc(C)ccc1-n1cccn1)[C@@H](C)CNc1ncc(C(F)(F)F)cn1` [Example 12], the “higher potency at OX1R” value at human Orexin 1 receptor (versus Example 90 in WO2016/034882) was “at least 3 fold”. Also, the efflux ratio in the data set on human MDR1 P-gp was less than 3. On to `CCN(C(=O)c1c(F)cccc1-c1ncccn1)[C@@H](C)CNc1ncc(C(F)(F)F)cn1` [Example 13], for which the efflux ratio with human MDR1 P-gp was less than 3. As to `CCN(C(=O)c1ccccc1-c1noc(C)n1)[C@@H](C)CNc1ncc(C(F)(F)F)cn1` [Example 14], the efflux ratio in the data set with human MDR1 P-gp was less than 3. `CCN(C(=O)c1cc(F)ccc1-c1ncccn1)[C@@H](C)CNc1ncc(C(F)(F)F)cn1` [Example 15]: the efflux ratio with human MDR1 P-gp was less than 3. On to `CCN(C(=O)c1ccc(F)cc1-c1ncccn1)[C@@H](C)CNc1ncc(C(F)(F)F)cn1` [Example 16], for which the efflux ratio in the data set with human MDR1 P-gp is less than 3. Consider `CCN(C(=O)c1ncccc1-c1ccccc1)[C@@H](C)CNc1ncc(C(F)(F)F)cn1` [Example 19], for which the efflux ratio in the data set with human MDR1 P-gp was less than 3. With `CCN(C(=O)c1cncnc1-c1ccccc1)[C@@H](C)CNc1ncc(C(F)(F)F)cn1` [Example 20], in the data set with human MDR1 P-gp, the efflux ratio is less than 3. On to `CCN(C(=O)c1nccnc1-c1ccccc1)[C@@H](C)CNc1ncc(C(F)(F)F)cn1` [Example 21], for which the efflux ratio in the data set on human MDR1 P-gp was less than 3. Same read-out and setting: the figure for `CCN(C(=O)c1ccccc1-n1nccn1)[C@@H](C)CNc1cnc(C(F)(F)F)cn1` [Example 22] is 3 to 5; for `CCN(C(=O)c1ccc(F)cc1-c1nnc(C)o1)[C@@H](C)CNc1cnc(C(F)(F)F)cn1` [Example 23] it is 3 to 5; for `CCN(C(=O)c1cccc(F)c1-n1nccn1)[C@@H](C)CNc1cnc(C(F)(F)F)cn1` [Example 24] it is 3 to 5.

These data come from US9884854B2, “N-[(pyrimidinylamino)propanyl]-and N[(pyrazinylamino)proppanyl]arylcarboxamides” (Boehringer Ingelheim International GmbH, priority 2016, dated 2018).
